The source of these data is PubChem BioAssay AID1259407 (Chemical Carcinogenesis Research Information System (CCRIS), 2018).

The source made the active and inactive calls. How the calls were made is not given here.

For the data set, the system named is CCRIS mutagenicity, Ames/micronucleus/aberration tests. Kind of data set: CCRIS mutagenicity studies.

Take `NC(Cc1ccc(Cl)cc1)C(=O)O` (stereo not drawn): the mutagenic call runs as follows: (Test System: AMES SALMONELLA TYPHIMURIUM, Strain/Indicator: TA98, Metabolic Activation: NONE) “inactive; negative”; (Test System: AMES SALMONELLA TYPHIMURIUM, Strain/Indicator: TA100, Metabolic Activation: NONE) “inactive; negative”; (Test System: AMES SALMONELLA TYPHIMURIUM, Strain/Indicator: TA1535, Metabolic Activation: NONE) “inactive; negative”; (Test System: AMES SALMONELLA TYPHIMURIUM, Strain/Indicator: TA1537, Metabolic Activation: NONE) “inactive; negative”; (Test System: B. SUBTILIS, Strain/Indicator: BD190 REC, Metabolic Activation: NONE, Method: SPOT TEST) “inactive; negative”; (Test System: E.COLI, Strain/Indicator: WP6 POLA, Metabolic Activation: NONE, Method: SPOT TEST) “inactive; negative”.

Consider `Brc1ccc(C2CO2)cc1` (stereo not drawn), for which the mutagenic call (Test System: E. COLI, Strain/Indicator: WP2 UVRA, Metabolic Activation: NONE, Method: STANDARD PLATE) was “active; positive”.

As for `O=[N+]([O-])c1ccc(-c2csc(Cl)n2)o1`, the mutagenic call by setting is: (Test System: E. COLI, Strain/Indicator: WP2, Metabolic Activation: NONE, Method: SPOT) “active; positive”; (Test System: E. COLI, Strain/Indicator: WP2 UVRA, Metabolic Activation: NONE, Method: SPOT) “active; positive”.

As for `[CH3][Sn]([CH3])([Cl])[Cl]`, the mutagenic call was “inactive; negative” (Test System: AMES SALMONELLA TYPHIMURIUM, Strain/Indicator: TA98, Metabolic Activation: NONE, Method: SUSPENSION/PLATE) and “inactive; negative” (Test System: AMES SALMONELLA TYPHIMURIUM, Strain/Indicator: TA100, Metabolic Activation: NONE, Method: SUSPENSION/PLATE).

Turning to `C[C@@H](Br)C(=O)NCc1ccccc1`, where the note is “Test System: AMES SALMONELLA TYPHIMURIUM, Strain/Indicator: TA100, Metabolic Activation: NONE, Method: STANDARD PLATE”, the mutagenic call was “active; positive”.

On to `CCCCCCCCCCCCN(C)N=O`, for which the mutagenic call (Test System: AMES SALMONELLA TYPHIMURIUM, Strain/Indicator: TA100, Metabolic Activation: RAT, LIVER, S-9, KC500 OR PHENOBARBITAL, Method: LIQUID SUSPENSION) is “active; positive”.
